The record followed here is PubChem BioAssay AID730 (The Scripps Research Institute Molecular Screening Center, 2007).

The source made the active and inactive calls.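 How the source made its calls: active means EC50 at or below 10 micromolar, taken from the curve fit or judged by hand from the single doses; inactive means EC50 above 10 micromolar.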

In this test the target is CHO S1P3/Ga15 NFAT-beta-lactamase reporter, FRET fluorescence. Kind of test: nonspecific agonism in S1P3 NFAT-BLA cells – counter-screen for 5HT1E agonist project, dose response (AID 730).
In general, EC50 refers to the concentration that produces a half-maximal response. As to `Cn1cc(/C(Cc2ccccc2)=N\O)c2ccccc21`, the EC50 is > 40 µM (inactive).
`CCOC(=O)C1=C(C)NC(=O)NC1c1ccc(OCC(=O)Nc2ccccc2)c(OC)c1` (stereo not drawn): the EC50 was > 40 µM (inactive).
With `CN1CCN(/C(=N\O)c2nonc2N)CC1`, the EC50 is > 40 µM (inactive).
